Laboratory results taken from US8729258B2, “Luminescent macrocyclic lanthanide complexes” (The Regents of the University of California, priority 2006, dated 2014).

Key:
[1] = Kinetic stability of Tb complexes in various media at room temperature; details: 5 nM Tb-complex, various media incl. 1% acetic acid and 1 mM EDTA, 0.05% Tween-80, room temperature
Protocol: In order to investigate the stability of macrocyclic ligands further, the stabilities of different Tb-complexes were determined using a variety of different media, including 1% acetic acid and 1 mM EDTA. […] Each stock solution was then diluted 200× into different test solutions in polypropylene microcentrifuge tubes to a final concentration of 5 nM Tb-complex. Each test solution also contained 0.05% Tween-80. The test solutions were allowed to incubate at room temperature. Samples were taken at indicated time points, evaluated in triplicate and luminescence was recorded using standard time-resolved luminescence settings and 340 nm and 490 excitation and emission filters, respectively.

streptavidin = streptavidin (Streptomyces avidinii, UniProt P22629); experiment: Non-specific interaction with protein (streptavidin), consecutive G50 gel filtration spin columns; type: binding; details: second and third consecutive gel filtration spin columns after conjugation of activated ester to streptavidin
Chain of streptavidin (P22629 25-183): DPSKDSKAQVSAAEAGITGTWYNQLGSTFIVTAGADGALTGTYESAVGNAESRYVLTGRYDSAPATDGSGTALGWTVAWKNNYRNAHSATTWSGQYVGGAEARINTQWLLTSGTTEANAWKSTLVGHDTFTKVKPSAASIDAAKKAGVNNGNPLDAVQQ
Protocol: It was therefore important to determine the tendency of the novel ligands to non-specifically interact with proteins. Sulfo-NHS ester and NHS ester derivatives of compound 5 were synthesized and conjugated to streptavidin. For comparison, the NHS ester of ligand 2 was also conjugated to streptavidin. Streptavidin was equilibrated in carbonate buffer, pH 9, at a concentration of approximately 130 μM. A DMF solution of the activated esters of each ligand was added to the protein at a final concentration of approximately 1 mM. The mixtures were allowed to incubate at 4° C. for 1 h. The metal is added either before or after conjugation of the ligand to the protein. Non-conjugated ligand was separated from conjugated protein using a G50 gel filtration centrifugal spin column technique (Penefsky, H. S, Methods Enzymol 1979, 56:527-30). This technique dilutes protein solutions to a lesser extent than conventional gel filtration techniques. Consecutive spin columns were run on a single protein sample solution to evaluate the extent of non-specific absorption of ligand. Following a single gel filtration separation, most of the excess ligand is removed and left at the top of the gel bed. A second spin column treatment should leave no further ligand at the top of the second column unless non-covalent association of the ligand with the protein occurs.

Compound: O=C(O)CCCC(=O)NCCCCC1CN2CCNC(=O)c3cccc(c3O)C(=O)NCCN(CCNC(=O)c3cccc(c3O)C(=O)N1)CCN1CCNC(=O)c3cccc(c3O)C(=O)NCCN(CCNC(=O)c3cccc(c3O)C(=O)NCC1)CC2 (stereo not drawn) [compound 5a, GlutarLysBH(2,2)IAM]
- stability of terbium complex compared to non-restrained ligand (1) [1]: significant increase in stability

Compound: CNC(=O)c1cc(C(=O)NC)c(O)c(C(=O)NCCN(CCNC(=O)c2cc(C(=O)NC)cc(C(=O)NC)c2O)CCN(CCNC(=O)c2cc(C(=O)NC)cc(C(=O)NC)c2O)CCNC(=O)c2cc(C(=O)NCCC(=O)O)cc(C(=O)NC)c2O)c1 [compound 2, reference compound]
- residual luminescence of ligand left at the top of the gel bed (streptavidin): high degree of residual luminescence

Compound: NCCN1CCNC(=O)c2cccc(c2O)C(=O)NCCN(CCNC(=O)c2cccc(C(N)=O)c2O)CCN2CCNC(=O)c3cccc(c3O)C(=O)NCCN(CCNC(=O)c3cccc(c3O)C(=O)NCC2)CC1 [compound 3]
- stability of terbium complex compared to non-restrained ligand (1) [1]: significant increase in stability
